Columns and labels:
BRD4 = BRD4 (Homo sapiens (Human), UniProt O60885); assay: TR-FRET in-vitro binding assay for BRD4; details: 45 nM His-Brd4(44-477), acetyl-histone H4 (AcK 5, 8, 12, 16) peptide
Description: (§1) TR-FRET In-Vitro Binding Assays for BRD2, BRD3, and BRD4: All assays were performed in 384-well microtiter plates. […] Liquid handling and incubation steps were done on an Innovadyne Nanodrop Express equipped with a robotic arm (Thermo CatX, Perkin Elmer/Caliper Twister II) and an incubator (Liconic STX40, Thermo Cytomat 2C450). The assay plates were prepared by addition of 50 nl per well of compound solution in 90% DMSO HummingBird nanodispenser (Zinsser Analytic). […] Reactions were incubated at 30° C. for 35 minutes. […] After 35 minutes incubation at 30° C., plates were measured in a Perkin Elmer EnVision multilabel reader. […] The stock solutions were stored at […] if not used immediately. For the test procedure the vials were defrosted and identified by a scanner whereby a working sheet was generated that guided the subsequent working steps. Compound dilutions were made in 96 well plates. This format enabled the assay of maximally […] at 8 concentrations (single points) including 4 reference compounds, if desired (known BET inhibitors from the prior art, for this and other assays of the type disclosed herein). The dilution protocol included the production of “pre-dilution plates”, “master plates” and “assay plates”. Polypropylene 96-well plates were used as pre-dilution plates. […] All dilution steps were done on a HamiltonSTAR robot. […] Identical “assay plates” were then prepared by pipetting 50 nL each of compound dilutions of the “master plates” into 384-well “assay plates” by means of a HummingBird 384-channel dispenser. These plates were used directly for the assay which was performed in a total volume of 13.55 μL.

CREBBP = CREBBP (Homo sapiens (Human), UniProt Q92793); assay: AlphaScreen in-vitro binding assay for CREBBP; details: 324 nM His-CREBBP (1081-1197), acetyl-histone H4 (AcK 5, 8, 12) peptide
Chain of CREBBP (Q92793 1081-1197): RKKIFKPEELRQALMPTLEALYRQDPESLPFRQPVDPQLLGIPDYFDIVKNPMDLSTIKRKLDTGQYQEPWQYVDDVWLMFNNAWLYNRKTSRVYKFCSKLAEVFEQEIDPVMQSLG
Description: AlphaScreen In-Vitro Binding Assay for CREBBP
In order to assess bromodomain selectivity, we set up a binding assay using the bromodomain encoded by the CREBBP gene. […] The assay was started by stepwise addition of 4.5 μL per well of bromo domain protein (50 mM HEPES, pH 7.5, 0.005% Tween20, 0.02% BSA, 150 mM NaCl, 324 nM His-CREBBP (1081-1197) (custom production at Viva Biotech Ltd.)) and 4.5 μL per well of peptide solution (50 mM HEPES, pH 7.5, 0.005% Tween20, 0.02% BSA, 150 mM NaCl, 120 nM acetyl-histone H4 (AcK 5, 8, 12) (Biosyntan GmbH)). Reactions were incubated at 30° C. for 35 minutes. Subsequently 4.5 μL per well detection mix (50 mM HEPES, pH 7.5, 0.005% Tween20, 0.02% BSA, 150 mM NaCl, 45 μg/ml Ni-chelate acceptor beads, 45 μg/mL streptavidin-donor beads) (Perkin Elmer)) were added. After 60 minutes incubation at room temperature, plates were measured in a Perkin Elmer EnVision multilabel reader. IC50 values were determined from percent inhibition values at different compound concentrations by non-linear regression analysis.
Test compounds were dissolved in DMSO (10 mM) and transferred into 1.4 mL flat bottom or V-shaped Matrix tubes carrying a unique 2D matrix. The stock solutions were stored at […] if not used immediately. For the test procedure the vials were defrosted and identified by a scanner whereby a working sheet was generated that guided the subsequent working steps. Compound dilutions were made in 96 well plates. This format enabled the assay of maximally […] at 8 concentrations (single points) including 4 reference compounds, if desired (known BET inhibitors from the prior art, for this and other assays of the type disclosed herein). The dilution protocol included the production of “pre-dilution plates”, “master plates” and “assay plates”.
Polypropylene 96-well plates were used as pre-dilution plates. A total of 4 pre-dilution plates were prepared including 10 test compounds each on the plate positions A1-A10, one standard compound at A11 and one DMSO control at […]. All dilution steps were done on a HamiltonSTAR robot.
30 μL of individual compound dilutions including standard compound and controls of the 4 “pre-dilution plates” were transferred into a 384-well “master plate” including the following concentrations 10000, […], 1000, 300, 100, 30, 10 and 3 μM, respectively in 90% of DMSO.
Identical “assay plates” were then prepared by pipetting 50 nL each of compound dilutions of the “master plates” into 384-well “assay plates” by means of a HummingBird 384-channel dispenser. These plates were used directly for the assay which was performed in a total volume of 13.55 μL.

THP-1 = assay: Cell growth inhibition assay (CellTiter-Glo), THP-1; format: cell-based, human; details: THP-1 cells, 4 days; for GI50: Homo sapiens, 96 h, half-maximal growth inhibition; for THP-1 TGI: total growth inhibition
Description: (§2) Cell Growth Inhibition Assay
(§3) The human leukemia cell lines MV-4-11, THP-1 and K-562 were employed to characterize the effect of BET inhibitors on cellular proliferation and viability. Cells were obtained from the American Type Culture Collection (ATCC) and cultured at 37° C. in a humidified 5% CO2 incubator in the following media: MV-4-11: DMEM high glucose (Animed #1-26F01-I), 10% FCS (Animed #2-01F26-I), 4 mM L-Glutamine (Animed #5-10K50), 1 mM Sodium Pyruvate (Animed # G03625P), 1× Penicillin-Streptomycin (Animed # F12478P); K-562: Iscove's MEM (Animed #1-28F16-I), 10% FCS (Animed #2-01F26-I), 4 mM L-Glutamine (Animed #5-10K50), 1× Penicillin-Streptomycin (Animed # F12478P); THP-1: RPMI-1640 (Animed #1-41F01-I), 10% FCS (Animed #2-01F26-I), 2 mM L-Glutamine (Animed #5-10K50), 10 mM HEPES (Animed #5-31F100), 1 mM Sodium Pyruvate (Animed # G03625P), 1× Penicillin-Streptomycin (Animed # F12478P). The AML lines MV-4-11 and THP-1 are very sensitive to BET inhibitors and show massive cell death upon BET inhibition (Zuber et al., Nature, 478 (2011), 524-8). Compound-mediated suppression of cell proliferation/viability was assessed by quantification of cellular ATP levels using the CellTiter-Glo (CTG) reagent (Promega). Briefly, cells were seeded in 20 μl fresh medium into 384-well plates, followed by addition of 5 μL medium containing compound dilutions at 5-fold their final intended concentration. Dose-response effects were assessed by 3-fold serial dilutions of the test compound, starting at 10 μM. Following incubation of the cells for 4 days at 37° C. and 5% CO2, the effect of inhibitors on cell viability was quantified following addition of 20 μl CTG and luminescence quantification (integration time: 100 ms) as per vendor manual, using a correspondingly equipped Tecan M200 multi-mode platereader (TECAN, Switzerland). For data analysis, the assay background value determined in wells containing medium, but no cells, was subtracted from all data points. To enable differentiation of cytotoxic from cytostatic compounds, the number of viable cells is assessed relative to that observed at the time of compound addition using a separate cell plate (day 0). The effect of a particular test compound concentration on cell proliferation/viability is expressed as percentage of the background- and day 0-corrected luminescence reading obtained for cells treated with vehicle only (DMSO, 0.1% final concentration), which is set as 100%, whereas that luminescence reading for wells containing medium is set as −100%. Compound concentrations leading to half-maximal (IC50) and total growth inhibition (TGI) were determined using standard four parameter curve fitting.

K-562 = assay: Cell growth inhibition assay (CellTiter-Glo), K-562; format: cell-based, human; details: K-562 cells, 4 days; for GI50: Homo sapiens, K562, 96 h, half-maximal growth inhibition; for K-562 TGI: total growth inhibition
Description: as §2, §3

BRD3 = BRD3 (Homo sapiens (Human), UniProt Q15059); assay: TR-FRET in-vitro binding assay for BRD3; details: 45 nM His-Brd3(20-477), acetyl-histone H4 (AcK 5, 8, 12, 16) peptide
Chain of BRD3 (Q15059 20-477): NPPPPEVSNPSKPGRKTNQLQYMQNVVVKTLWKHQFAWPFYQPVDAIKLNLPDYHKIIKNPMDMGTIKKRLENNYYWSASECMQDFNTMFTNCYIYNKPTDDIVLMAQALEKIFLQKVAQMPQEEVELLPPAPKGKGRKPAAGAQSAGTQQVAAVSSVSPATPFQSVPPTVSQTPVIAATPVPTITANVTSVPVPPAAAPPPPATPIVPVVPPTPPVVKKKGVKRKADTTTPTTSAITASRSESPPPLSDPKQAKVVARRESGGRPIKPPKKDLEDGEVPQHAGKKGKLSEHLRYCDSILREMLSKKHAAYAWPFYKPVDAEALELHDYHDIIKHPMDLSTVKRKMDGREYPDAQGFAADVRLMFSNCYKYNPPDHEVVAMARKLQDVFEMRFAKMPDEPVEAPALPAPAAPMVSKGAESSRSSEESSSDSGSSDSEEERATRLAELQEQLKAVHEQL
Description: as §1

MV-4-11 = assay: Cell growth inhibition assay (CellTiter-Glo), MV-4-11; format: cell-based, human; details: MV-4-11 cells, 4 days; for GI50: Homo sapiens, MV4-11, 96 h, half-maximal growth inhibition; for MV-4-11 TGI: total growth inhibition
Description: as §2, §3

With `COc1ncccc1-c1cc2c(n1C)C(c1ccc(Cl)cc1)N(c1cc(C)c3nnc(C)n3c1)C2=O` (stereo in doubt) [Example 135, (R)-6-(4-chlorophenyl)-5-(3,8-dimethyl-[1,2,4]triazolo[4,3-a]pyridin-6-yl)-2-(2-methoxypyridin-3-yl)-1-methyl-5,6-dihydropyrrolo[3,4-b]pyrrol-4(1H)-one] the IC50 (BRD4) was 14 nM, the IC50 (CREBBP) was 470 nM and the GI50 (THP-1) was 6.4 nM. The “THP-1 TGI” value (THP-1) was 14.95 nM, the GI50 (K-562) was 21.4 nM and the “K-562 TGI” value (K-562) was >10000 nM. For the same compound, the IC50 (BRD3) was 21 nM, the GI50 (MV-4-11) was 6.08 nM and the “MV-4-11 TGI” value (MV-4-11) was 12.44 nM.

With `Cc1cc(N2C(=O)c3cc(C4=CCOCC4)n(C)c3C2c2ccc(Cl)cc2)cn2c(C)nnc12` (stereo in doubt) [Example 137, (R)-6-(4-chlorophenyl)-2-(3,6-dihydro-2H-pyran-4-yl)-5-(3,8-dimethyl-[1,2,4]triazolo[4,3-a]pyridin-6-yl)-1-methyl-5,6-dihydropyrrolo[3,4-b]pyrrol-4(1H)-one] the IC50 (BRD4) was < 11 nM, the IC50 (CREBBP) was 590 nM and the GI50 (THP-1) was 11.1 nM. For the same compound, the “THP-1 TGI” value (THP-1) was 22.75 nM, the GI50 (K-562) was 31.1 nM and the “K-562 TGI” value (K-562) was >10000 nM. The IC50 (BRD3) was 13 nM, the GI50 (MV-4-11) was 10 nM and the “MV-4-11 TGI” value (MV-4-11) was 18.75 nM.

`Cc1cc(N2C(=O)c3c(C4CC4)cn(C4COC4)c3C2c2ccc(Cl)cc2)cn2c(C)nnc12` (centres unmarked) [Example 18, 6-(4-chlorophenyl)-3-cyclopropyl-5-(3,8-dimethyl-[1,2,4]triazolo[4,3-a]pyridin-6-yl)-1-(oxetan-3-yl)-5,6-dihydropyrrolo[3,4-b]pyrrol-4(1H)-one] was tested, and the IC50 (BRD4) was 12 nM, the GI50 (THP-1) was 4.63 nM and the “THP-1 TGI” value (THP-1) was 13.35 nM. The GI50 (K-562) was 16.4 nM, the “K-562 TGI” value (K-562) was >10000 nM and the GI50 (MV-4-11) was 2.86 nM. The “MV-4-11 TGI” value (MV-4-11) was 8.13 nM.

`Cc1cc(N2C(=O)c3c(C4CC4)cn(C)c3C2c2ccc(Cl)cc2)cn2c(C)nnc12` (centres unmarked) [Example 35, 6-(4-chlorophenyl)-3-cyclopropyl-5-(3,8-dimethyl-[1,2,4]triazolo[4,3-a]pyridin-6-yl)-1-methyl-5,6-dihydropyrrolo[3,4-b]pyrrol-4(1H)-one] was tested, and the IC50 (CREBBP) was 6100 nM, the GI50 (THP-1) was 8.94 nM and the “THP-1 TGI” value (THP-1) was 17.85 nM. The GI50 (K-562) was 45.9 nM, the “K-562 TGI” value (K-562) was >10000 nM and the IC50 (BRD3) was 15 nM. For the same compound, the GI50 (MV-4-11) was 4.08 nM and the “MV-4-11 TGI” value (MV-4-11) was 8.67 nM.

`Cc1cc(N2C(=O)c3c(C4CC4)cn(C)c3[C@H]2c2ccc(Cl)cc2)cn2c(C)nnc12` [Example 36, (R)-6-(4-chlorophenyl)-3-cyclopropyl-5-(3,8-dimethyl-[1,2,4]triazolo[4,3-a]pyridin-6-yl)-1-methyl-5,6-dihydropyrrolo[3,4-b]pyrrol-4(1H)-one] was tested, and the IC50 (CREBBP) was 4100 nM, the GI50 (THP-1) was 3.36 nM and the “THP-1 TGI” value (THP-1) was 10.91 nM. For the same compound, the GI50 (K-562) was 17.9 nM, the “K-562 TGI” value (K-562) was >10000 nM and the IC50 (BRD3) was 15 nM. The GI50 (MV-4-11) was 2.15 nM and the “MV-4-11 TGI” value (MV-4-11) was 6.22 nM.

`Cc1cc2c(n1C)C(c1ccc(Cl)cc1)N(c1cc(Cl)c(=O)n(C)c1)C2=O` (centres unmarked) [Example 74, 5-(5-chloro-1-methyl-6-oxo-1,6-dihydropyridin-3-yl)-6-(4-chlorophenyl)-1,2-dimethyl-5,6-dihydropyrrolo[3,4-b]pyrrol-4(1H)-one] was tested, and the IC50 (BRD4) was 23 nM, the GI50 (THP-1) was 92.7 nM and the “THP-1 TGI” value (THP-1) was 171.5 nM. The GI50 (K-562) was 273 nM, the “K-562 TGI” value (K-562) was >10000 nM and the GI50 (MV-4-11) was 90.1 nM. For the same compound, the “MV-4-11 TGI” value (MV-4-11) was 142 nM.

For `Cn1ccc2c1C(c1ccc(Cl)cc1)N(c1cc(Cl)c(=O)n(C)c1)C2=O` (centres unmarked) [Example 76, 5-(5-chloro-1-methyl-6-oxo-1,6-dihydropyridin-3-yl)-6-(4-chlorophenyl)-1-methyl-5,6-dihydropyrrolo[3,4-b]pyrrol-4(1H)-one], the IC50 (BRD4) was 37 nM, the GI50 (THP-1) was 118 nM and the “THP-1 TGI” value (THP-1) was 238 nM. The GI50 (K-562) was 368 nM, the “K-562 TGI” value (K-562) was >10000 nM and the GI50 (MV-4-11) was 108 nM. For the same compound, the “MV-4-11 TGI” value (MV-4-11) was 178 nM.

For `CC(=O)Nc1cn(C)c2c1C(=O)N(c1cc(C)c3nnc(C)n3c1)[C@@H]2c1ccc(Cl)cc1` [Example 136, (R)—N-(6-(4-chlorophenyl)-5-(3,8-dimethyl-[1,2,4]triazolo[4,3-a]pyridin-6-yl)-1-methyl-4-oxo-1,4,5,6-tetrahydropyrrolo[3,4-b]pyrrol-3-yl)acetamide], the IC50 (CREBBP) was 1400 nM, the GI50 (THP-1) was 33.7 nM and the “THP-1 TGI” value (THP-1) was 79.2 nM. The GI50 (K-562) was 119 nM, the “K-562 TGI” value (K-562) was >10000 nM and the GI50 (MV-4-11) was 19.8 nM. The “MV-4-11 TGI” value (MV-4-11) was 39.5 nM.

— US9550796B2, “Pyrrolopyrrolone derivatives and their use as BET inhibitors” (NOVARTIS AG, priority 2013, dated 2017)
